# Reference: patent US20180251495A1, “Skin-Penetrating Peptides and Compositions and Methods of Use Thereof” (The Regents of the University of California, priority 2015, published 2018)
# Where two headings read alike, the source gives them in different places. Where a SMILES comes first, the peptide text is derived from it. Bridges are numbered along the chain shown (N, C = ends). Where no end group is shown, it is not given here.
# What was measured:
# [1] = tested on: HEKa cells (human adult epidermal keratinocytes); assay: MTT cytotoxicity assessment in keratinocytes; type: cell-based; details: overnight incubation, MTT
# Method: (§1) HEKa cells were cultured in 1× keratinocyte Serum-Free Medium supplemented with 25 U/mL penicillin, 25 μg/mL streptomycin, and 50 μg/mL neomycin. Cultures were grown at 37° C. with 5% CO2. The cytotoxicity of SPPs was assessed using the MTT Cell Proliferation Assay (ATCC, Manassas, Va.). HEKa cells were seeded in 96-well microplates (Corning Inc., Corning, N.Y.) at a density of 5000 cells/well. Cultures were allowed to grow until they reached ˜80% confluency. Cells were then incubated with 200 μL of 10, 5, or 2.5 mg/mL of selected SPPs in media. The pH was adjusted to afford complete dissolution of peptides. Media only was used as a negative control, and media or SPP formulations without cells was used to subtract background. Cytotoxicity was assessed after overnight incubation. Viability was determined according to the manufacturer's recommended protocol using a SAFIRE, XFLUOR4, V4.50 microplate reader (Tecan Group Ltd, Morrisville, N.Y.).
# (§2) To assess the potential for skin toxicity, SPPs were incubated with HEKa cells overnight and % viability was determined. HEKa cells were used since keratinocytes are the primary cell-type in the skin, and therefore, represent a good estimate of the potential for skin irritation.
# [2] = In vitro skin permeation of radiolabelled SPPs in Franz diffusion cells; type: in vitro ADME, porcine
# Method: Test formulations were loaded and incubated as described.
# The skin penetrating ability of the selected heptamer (SP7-1 through SP7-5) SPPs was evaluated in comparison with SPACE™. […] Radiolabelled peptides were loaded on Franz diffusion cells (FDCs) and incubated at 37° C. with moderate stirring. After 24 hours, the various skin layers were harvested, dissolved and analyzed using a scintillation counter to determine the amount of peptide.
# [3] = for solubility in PBS: PBS pH 8.0
# [4] = MTT cytotoxicity assessment in keratinocytes; type: cell-based, human; details: human, HEKa cells (adult epidermal keratinocytes); HEKa cells exposed to 5 mg/mL peptide in solution
# Method: as §1, §2
# [5] = molecular target: human keratin (human); assay: batch affinity chromatography, peptide on Toyopearl resin, human keratin in solution, Langmuir fit
# [6] = molecular target: human keratin (human); assay: batch adsorption isotherm (affinity chromatography): peptide coupled to Toyopearl AF-Epoxy-650 resin, human keratin in PBS pH 7.4 in solution, Langmuir fit
# [7] = peptide amount after 24 hours, 37° C.
Experimental Qmax [5] [mg/mL resin],Kd [5] [µM],Kd [6] [µg/mL],Molecule,toxicity to HEKa cells [1],"Skin permeation, Dermis [2, 7] [μg/cm^2]","Skin permeation, Receptor [2, 7] [μg/cm^2]","Skin permeation, SC + Epidermis [2, 7] [μg/cm^2]",also measured
,,,"C[C@H](N)C(=O)N[C@H]1CSSC[C@@H](C(=O)NCC(=O)O)NC(=O)[C@H](CC(N)=O)NC(=O)[C@H](CCCNC(=N)N)NC(=O)CNC(=O)[C@H]([C@@H](C)O)NC(=O)[C@H](Cc2c[nH]cn2)NC(=O)[C@H]([C@@H](C)O)NC1=O [SP6-1, ACTHTGRNCG] (H-ACTHTGRNCG-OH; disulfide 2-9; N-terminus and C-terminus assumed)",no observable toxicity,,,,toxicity to HEKa cells ([1]; listed as hexamer): non-toxic at concentrations as high as 10 mg/mL
,,,"CC(C)C[C@@H]1NC(=O)[C@H]([C@@H](C)O)NC(=O)[C@H](C)NC(=O)[C@H](CO)NC(=O)[C@@H](NC(=O)[C@H](C)N)CSSC[C@@H](C(=O)NCC(=O)O)NC(=O)[C@H](CO)NC(=O)[C@H](Cc2c[nH]cn2)NC(=O)[C@H](CCC(N)=O)NC1=O [SP7-1, ACSATLQHSCG] (H-ACSATLQHSCG-OH; disulfide 2-10; N-terminus and C-terminus assumed)",only toxic when at 10 mg/mL,149.7 ± 5.6,42.4 ± 8.5,819.2 ± 62.2,pH adjusted to achieve complete solubility ([3]; PBS): 8.5
,,,"CC(C)C[C@@H]1NC(=O)[C@H](CO)NC(=O)[C@@H](NC(=O)[C@H](C)N)CSSC[C@@H](C(=O)NCC(=O)O)NC(=O)[C@H](CC(N)=O)NC(=O)[C@H](Cc2c[nH]c3ccccc23)NC(=O)[C@H](CC(N)=O)NC(=O)[C@H](C(C)C)NC(=O)[C@H]([C@@H](C)O)NC1=O [SP7-2, ACSLTVNWNCG] (H-ACSLTVNWNCG-OH; disulfide 2-10; N-terminus and C-terminus assumed)",,166.7 ± 45.2,65.0 ± 14.1,774.0 ± 110.2,"toxicity to HEKa cells ([1]; listed as SP-2): some toxicity for all concentrations tested, however, the results were not statistically significant; solubility in PBS [3]: did not give any solubility problems"
,,,"CC(C)C[C@@H]1NC(=O)[C@@H](NC(=O)[C@H](C)N)CSSC[C@@H](C(=O)NCC(=O)O)NC(=O)[C@H](C)NC(=O)[C@H](CC(N)=O)NC(=O)[C@H](Cc2c[nH]cn2)NC(=O)[C@H](CC(N)=O)NC(=O)[C@H](C(C)C)NC(=O)[C@H](CO)NC1=O [SP7-3, ACLSVNHNACG] (H-ACLSVNHNACG-OH; disulfide 2-10; N-terminus and C-terminus assumed)",significantly toxic (p <0.001) at only 1 mg/mL,39.5 ± 25.4,16.9 ± 11.3,759.9 ± 73.4,solubility in presence of CsA ([3]; in presence of CsA): could not be fully solubilized
,,,"C[C@H](N)C(=O)N[C@H]1CSSC[C@@H](C(=O)NCC(=O)O)NC(=O)[C@H](C)NC(=O)[C@H](CC(N)=O)NC(=O)[C@H](CCCNC(=N)N)NC(=O)CNC(=O)[C@H]([C@@H](C)O)NC(=O)[C@H](CO)NC(=O)[C@H]([C@@H](C)O)NC1=O [SP7-4, ACTSTGRNACG] (H-ACTSTGRNACG-OH; disulfide 2-10; N-terminus and C-terminus assumed)",significantly toxic (p <0.001) at only 1 mg/mL,53.7 ± 31.1,19.8 ± 19.8,545.2 ± 79.1,solubility in PBS [3]: did not give any solubility problems
,,,"C[C@H](N)C(=O)N[C@H]1CSSC[C@@H](C(=O)NCC(=O)O)NC(=O)[C@H](CC(N)=O)NC(=O)[C@H](Cc2c[nH]cn2)NC(=O)[C@H](CC(N)=O)NC(=O)[C@H]([C@@H](C)O)NC(=O)[C@H](CO)NC(=O)[C@H](C)NC(=O)[C@H](CO)NC1=O [SP7-5, ACSASTNHNCG] (H-ACSASTNHNCG-OH; disulfide 2-10; N-terminus and C-terminus assumed)",significantly toxic (p <0.001) at only 1 mg/mL,124.3 ± 28.2,39.5 ± 8.5,759.9 ± 62.1,viability at 5000 µg/mL [4]: 60.1 ± 2.6%; solubility in PBS [3]: did not give any solubility problems
,,,"C[C@H](N)C(=O)N[C@H]1CSSC[C@@H](C(=O)NCC(=O)O)NC(=O)[C@H]([C@@H](C)O)NC(=O)[C@H](CO)NC(=O)[C@H](CCCNC(=N)N)NC(=O)[C@H](C)NC(=O)[C@H](CCC(N)=O)NC(=O)[C@H](Cc2c[nH]cn2)NC(=O)[C@H](C)NC(=O)[C@H](CC(N)=O)NC1=O [SP8-1, ACNAHQARSTCG] (H-ACNAHQARSTCG-OH; disulfide 2-11; N-terminus and C-terminus assumed)",no observable toxicity,,,,toxicity to HEKa cells ([1]; listed as octamer): non-toxic at concentrations as high as 10 mg/mL
,,,"C[C@H](N)C(=O)N[C@H]1CSSC[C@@H](C(=O)NCC(=O)O)NC(=O)[C@H](CCC(N)=O)NC(=O)[C@H](Cc2c[nH]cn2)NC(=O)[C@H](CCC(N)=O)NC(=O)[C@H]([C@@H](C)O)NC(=O)[C@H](CO)NC(=O)CNC(=O)[C@H]([C@@H](C)O)NC1=O [SPACE™, ACTGSTQHQCG, reference compound] (H-ACTGSTQHQCG-OH; disulfide 2-10; N-terminus and C-terminus assumed)",,,,,"Skin permeation, Dermis [2]: 200.6 ± 59.3 μg/cm^2; Skin permeation, Receptor [2]: 96.0 ± 31.1 μg/cm^2; Skin permeation, SC + Epidermis [2]: 782.5 ± 84.7 μg/cm^2; viability at 5000 µg/mL [4]: 99.4 ± 3.9%"
3.98,10.6,477,ACTGSTQHQCG (disulfide 2-10 (inferred)) [SPACE™ peptide (…)],,,,,
4.07,9.4,423,ACLSVNHNACG (disulfide 2-10 (inferred)) [SP7-3 (…)],,,,,
4.16,8.02,361,ACSATLQHSCG (disulfide 2-10 (inferred)) [SP7-1 (…)],,,,,
4.09,8.73,393,ACSLTVNWNCG (disulfide 2-10 (inferred)) [SP7-2 (…)],,,,,
4.01,10.1,456,ACSASTNHNCG (disulfide 2-10 (inferred)) [SP7-5 (…)],,,,,
3.43,15.8,716,ACTSTGRNACG (disulfide 2-10 (inferred)) [SP7-4 (…)],,,,,
